Laboratory results from paper PMC3489957 (Bioorganic & medicinal chemistry, 2012).
pIC50: −log10 of the molar value.

Key:
in vitro = conditions: human, lymphocytic CEM cells
[1] = Cytotoxicity in Vero cells; format: cell-based; conditions: African green monkey, Vero kidney cells
[2] = Cytotoxicity in uninfected PHA-stimulated human PBM cells; format: cell-based; conditions: uninfected phytohemagglutinin-stimulated PBM cells

Structure (SMILES)	pIC50 (in vitro)	pIC50 [1]	pIC50 [2]
CC(C)(C)OC(=O)N1[C@H](CO)CC(F)(F)[C@H]1n1ccc(=O)[nH]c1=O [Analogue 18a, 1-[(2S,5S)-N-tert-Butyloxycarbonyl-3,3-difluoro-5-(hydroxymethyl)pyrrolidin-2-yl]-uracil]	< 4.00	< 4.00	–
CC(C)(C)OC(=O)N1[C@H](CO)CC(F)(F)[C@H]1n1cc(F)c(=O)[nH]c1=O [Analogue 18d, 1-[(2S,5S)-N-tert-Butyloxycarbonyl-3,3-difluoro-5-(hydroxymethyl)pyrrolidin-2-yl]-5-fluorouracil]	< 4.00	< 4.00	–
CC(C)(C)OC(=O)N1[C@H](CO)CC(F)(F)[C@@H]1n1ccc(=O)[nH]c1=O [Analogue 19a, 1-[(2R,5S)-N-tert-butyloxycarbonyl-3,3-difluoro-5-(hydroxymethyl)pyrrolidin-2-yl]-uracil]	< 4.00	–	–
CC(C)(C)OC(=O)N1[C@H](CO)CC(F)(F)[C@@H]1n1cc(F)c(=O)[nH]c1=O [Analogue 19d, 1-[(2R,5S)-N-tert-Butyloxycarbonyl-3,3-difluoro-5-(hydroxymethyl)pyrrolidin-2-yl]-5-fluorouracil]	< 4.00	< 4.00	–
CC(C)(C)OC(=O)N1[C@H](CO)CC(F)(F)[C@@H]1n1cnc2c(Cl)ncnc21 [Analogue 26, 9-[(2R,5S)-N-tert-Butyloxycarbonyl-3,3-difluoro-5-(hydroxymethyl)pyrrolidin-2-yl]-6-chloropurine]	–	< 4.00	–
CC(C)(C)OC(=O)N1[C@H](CO)CC(F)(F)[C@H]1n1cnc2c(Cl)ncnc21 [Analogue 27, 9-[(2S,5S)-N-tert-Butyloxycarbonyl-3,3-difluoro-5-(hydroxymethyl)pyrrolidin-2-yl]-6-chloropurine]	–	< 4.00	–
CC(C)(C)OC(=O)N1[C@H](CO)CC(F)(F)[C@@H]1n1cnc2ncnc(Cl)c21 [Analogue 28, 7-[(2R,5S)-N-tert-Butyloxycarbonyl-3,3-difluoro-5-(hydroxymethyl)pyrrolidin-2-yl]-6-chloropurine]	–	< 4.00	–
CC(C)(C)OC(=O)N1[C@H](CO)CC(F)(F)[C@H]1n1cnc2ncnc(Cl)c21 [Analogue 29, 7-[(2S,5S)-N-tert-Butyloxycarbonyl-3,3-difluoro-5-(hydroxymethyl)pyrrolidin-2-yl]-6-chloropurine]	–	< 4.00	–
CC(C)(C)OC(=O)N1[C@H](CO)CC(F)(F)[C@@H]1n1cnc2c(N)ncnc21 [Analogue 30, 9-[(2R,5S)-N-tert-Butyloxycarbonyl-3,3-difluoro-5-(hydroxymethyl)pyrrolidin-2-yl]-adenine]	< 4.00	< 4.00	< 4.00
CC(C)(C)OC(=O)N1[C@H](CO)CC(F)(F)[C@H]1n1cnc2c(N)ncnc21 [Analogue 31, 9-[(2S,5S)-N-tert-Butyloxycarbonyl-3,3-difluoro-5-(hydroxymethyl)pyrrolidin-2-yl]-adenine]	< 4.00	< 4.00	< 4.00
CC(C)(C)OC(=O)N1[C@H](CO)CC(F)(F)[C@@H]1n1cnc2ncnc(N)c21 [Analogue 32, 7-[(2R,5S)-N-tert-Butyloxycarbonyl-3,3-difluoro-5-(hydroxymethyl)pyrrolidin-2-yl]-adenine]	< 4.00	< 4.00	< 4.00
CC(C)(C)OC(=O)N1[C@H](CO)CC(F)(F)[C@H]1n1cnc2ncnc(N)c21 [Analogue 33, 7-[(2S,5S)-N-tert-Butyloxycarbonyl-3,3-difluoro-5-(hydroxymethyl)pyrrolidin-2-yl]-adenine]	< 4.00	< 4.00	< 4.00
